Article PMC7696671, “P2Y2 and P2X4 Receptors Mediate Ca^2+ Mobilization in DH82 Canine Macrophage Cells” (International Journal of Molecular Sciences, 2020)

Tests used:
Type in all cases: cell-based
[1] = target: T1, P2Y2 receptor (Canis lupus, UniProt A0A8I3MZ62); experiment: Fura-2 Ca2+ assay in DH82 cells, inhibition of the response to […] UTP (peak)
T1 construct: gene P2RY2; endogenous receptor in DH82 canine macrophage cells

[2] = target: T1, P2Y2 receptor; experiment: Fura-2 Ca2+ assay in DH82 cells, agonist peak response; blocked by AR-C118925 in Ca2+-free solution
[3] = target: T1, P2Y2 receptor; experiment: Fura-2 Ca2+ assay in DH82 cells, agonist peak response

T1 sequence (A0A8I3MZ62 1-377): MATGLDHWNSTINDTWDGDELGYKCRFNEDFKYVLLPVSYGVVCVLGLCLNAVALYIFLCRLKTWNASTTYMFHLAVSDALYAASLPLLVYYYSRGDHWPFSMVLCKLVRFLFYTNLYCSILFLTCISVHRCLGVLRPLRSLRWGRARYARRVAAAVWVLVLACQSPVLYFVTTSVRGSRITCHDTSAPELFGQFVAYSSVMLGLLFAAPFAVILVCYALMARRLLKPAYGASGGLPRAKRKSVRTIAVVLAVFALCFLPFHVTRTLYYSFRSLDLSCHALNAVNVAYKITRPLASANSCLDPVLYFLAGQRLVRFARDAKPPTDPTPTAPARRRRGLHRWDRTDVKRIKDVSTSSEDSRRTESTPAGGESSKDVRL

Molecule `Cc1ccc2c(c1)C=Cc1cc(C)ccc1C2c1cn(Cc2ccc(C(=O)Nc3nn[nH]n3)o2)c(=O)[nH]c1=S` [AR-C118925] has an IC50 [1] of 6.61 ± 0.09 pIC50.

For `Nc1ncnc2c1ncn2[C@@H]1O[C@H](COP(=O)(O)OP(=O)(O)OP(=O)(O)O)[C@@H](O)[C@H]1O` [ATP], the “Peak Ca^2+ Response / pEC50” value [2] was 5.88 ± 0.05 pEC50.

For `O=c1ccn([C@@H]2O[C@H](CO[P@@](=O)(O)O[P@@](=O)(O)OP(=O)(O)O)[C@@H](O)[C@H]2O)c(=O)[nH]1` [UTP], the “Peak Ca^2+ Response / pEC50” value [3] was 6.16 ± 0.09 pEC50.

Work on `Cc1ccc(C(=O)Nc2ccc(S(=O)(=O)O)c3cc(S(=O)(=O)O)cc(S(=O)(=O)O)c23)cc1NC(=O)c1cccc(NC(=O)Nc2cccc(C(=O)Nc3cc(C(=O)Nc4ccc(S(=O)(=O)O)c5cc(S(=O)(=O)O)cc(S(=O)(=O)O)c45)ccc3C)c2)c1` [suramin] yielded an IC50 [1] of 3.70 ± 0.05 pIC50.
